EP4707280A1, “1,4-CINEOLE DERIVATIVE AND INTERMEDIATE THEREOF, HERBICIDE CONTAINING SAID DERIVATIVE AS ACTIVE INGREDIENT, METHOD FOR USING HERBICIDE, AND METHOD FOR PREPARING AGROCHEMICAL COMPOSITION” (HOKKO CHEMICAL INDUSTRY CO., LTD., priority 2023, dated 2024)

Experiments:
Format in all cases: in vivo
[1] = system: Echinochloa crus-galli var. formosensis; assay: Test Example 1: herbicidal effect test by soil application in paddy rice; settings: 120 g active ingredient per 10 ares, applied immediately after sowing, flooded pots, 14 days after application; for pest or weed control at 1200 g/ha: Echinochloa crus-galli, soil, 336 h, read-out: weed inhibition rate
Outline: (§1)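 Paddy soil in Wagner pots (1/10,000 acre) was fertilized (N:P:K 16:16:16) and puddled, then weed seeds were sown 0–1 cm deep, 30 each. Pots were flooded to ~3 cm and kept in a glass greenhouse. Emulsifiable concentrate diluted in water was dropped on immediately after sowing at 120 g a.i. per 10 ares.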

Scirpus juncoides [2] = assay: as above; settings: 120 g active ingredient per 10 ares, applied immediately after sowing, flooded pots, 14 days after application; for pest or weed control at 1200 g/ha: Schoenoplectiella juncoides, soil, 336 h, read-out: weed inhibition rate
Outline: as §1

Monochoria vaginalis [3] = assay: as above; settings: 120 g active ingredient per 10 ares, applied immediately after sowing, flooded pots, 14 days after application; for pest or weed control at 1200 g/ha: Pontederia vaginalis, soil, 336 h, read-out: weed inhibition rate
Outline: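 Pre-emergence test in puddled, flooded paddy soil (about 3 cm water), 30 seeds per weed sown at 0–1 cm depth in a glass greenhouse. Emulsifiable concentrate diluted in water and dropped onto the pots straight after sowing at 120 g a.i. per 10 ares. Weed inhibition (%) scored at 14 days, in duplicate.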

[4] = system: Echinochloa crus-galli var. formosensis; assay: Test Example 2: herbicidal effect test by application during growth period of paddy rice; settings: Echinochloa crus-galli; 120 g per 10 ares; applied seven days after sowing, flooded pots; 14 days after application; read-out: weed inhibition rate
Outline: (§2)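 Paddy soil in Wagner pots was puddled with N:P:K 16:16:16 fertilizer, sown with 30 weed seeds per species at 0–1 cm and flooded to about 3 cm. Seven days after sowing, a water-diluted emulsifiable concentrate was dropped onto the water at 120 g active ingredient per 10 ares. Weed inhibition (%) was scored at 14 days, in duplicate.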

Monochoria vaginalis [5] = assay: as above; settings: Pontederia vaginalis; 120 g per 10 ares; applied seven days after sowing, flooded pots; 14 days after application; read-out: weed inhibition rate
Outline: as §2

Scirpus juncoides [6] = assay: as above; settings: Schoenoplectiella juncoides; 120 g per 10 ares; applied seven days after sowing, flooded pots; 14 days after application; read-out: weed inhibition rate
Outline: as §2

Echinochloa crus-galli [7] = assay: Test Example 4: herbicidal effect test by stem and leaf treatment in upland field; settings: Echinochloa crus-galli; 120 g per 10 ares; sprayed seven days after sowing, upland soil; 14 days after application; read-out: weed inhibition rate
[8] = system: Echinochloa crus-galli var. formosensis; assay: Test Example 5: herbicidal effect test by soil application in paddy rice (low dose); settings: Echinochloa crus-galli, soil, 336 h; 7.5 g per 10 ares; applied immediately after sowing, flooded pots; 14 days after application; read-out: weed inhibition rate
Outline: (§3)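 Paddy soil in Wagner pots was fertilized (N:P:K 16:16:16), puddled, sown with 30 seeds per weed species at 0–1 cm, then flooded to ~3 cm in a glass greenhouse. Emulsifiable concentrate diluted in water was dropper-applied into floodwater immediately, at 7.5 g active ingredient per 10 ares; duplicates, scored at 14 days.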

Monochoria vaginalis [9] = assay: as above; settings: Pontederia vaginalis, 336 h, 7.5 g per 10 ares, applied immediately after sowing, flooded pots, 14 days after application, read-out: weed inhibition rate
Outline: as §3

Scirpus juncoides [10] = assay: as above; settings: Schoenoplectiella juncoides, 336 h, 7.5 g per 10 ares, applied immediately after sowing, flooded pots, 14 days after application, read-out: weed inhibition rate
Outline: as §3

Digitaria ciliaris = assay: Test Example 8: herbicidal effect test by stem and leaf treatment in upland field (low dose); settings: Digitaria ciliaris; 7.5 g per 10 ares; sprayed seven days after sowing, upland soil; 14 days after application; read-out: weed inhibition rate
Echinochloa crus-galli [11] = assay: as above; settings: Echinochloa crus-galli; 7.5 g per 10 ares; sprayed seven days after sowing, upland soil; 14 days after application; read-out: weed inhibition rate

CC(C)[C@]12C[C@@H](OCc3c(F)cccc3Br)[C@](C)(CC1=O)O2 [2-355, (1R,4S,5R)-5-((2-bromo-6-fluorobenzyl)oxy)-1-isopropyl-4-methyl-7-oxabicyclo[2.2.1]heptan-2-one]
≥ 80%: pest or weed control at 1200 g/ha [1] | pest or weed control at 1200 g/ha (Scirpus juncoides [2]) | pest or weed control at 1200 g/ha (Monochoria vaginalis [3]) | inhibition at 1200 g/ha [4] | inhibition at 1200 g/ha (Monochoria vaginalis [5]) | inhibition at 1200 g/ha (Scirpus juncoides [6]) | inhibition at 1200 g/ha (Echinochloa crus-galli [7]) | inhibition at 75 g/ha [8] | inhibition at 75 g/ha (Monochoria vaginalis [9]) | inhibition at 75 g/ha (Scirpus juncoides [10]) | inhibition at 75 g/ha (Digitaria ciliaris) | inhibition at 75 g/ha (Echinochloa crus-galli [11])

Cc1ccccc1CO[C@@H]1C[C@]2(C(C)C)O[C@@]1(C)C[C@@H]2I [1-741, (1S,2R,4R,5S)-5-iodo-1-methyl-2-[(2-methylphenyl)methoxy]-4-isopropyl-7-oxabicyclo[2.2.1]heptane]
≥ 80%: pest or weed control at 1200 g/ha [1] | pest or weed control at 1200 g/ha (Scirpus juncoides [2]) | pest or weed control at 1200 g/ha (Monochoria vaginalis [3]) | inhibition at 1200 g/ha [4] | inhibition at 1200 g/ha (Monochoria vaginalis [5]) | inhibition at 1200 g/ha (Scirpus juncoides [6]) | inhibition at 1200 g/ha (Echinochloa crus-galli [7]) | inhibition at 75 g/ha [8] | inhibition at 75 g/ha (Monochoria vaginalis [9]) | inhibition at 75 g/ha (Scirpus juncoides [10]) | inhibition at 75 g/ha (Digitaria ciliaris) | inhibition at 75 g/ha (Echinochloa crus-galli [11])

Cc1cccc(F)c1CO[C@@H]1C[C@]2(C(C)C)O[C@@]1(C)CC2=O [2-353, (1R,4S,5R)-5-((2-fluoro-6-methylbenzyl)oxy)-1-isopropyl-4-methyl-7-oxabicyclo[2.2.1]heptan-2-one]
≥ 80%: pest or weed control at 1200 g/ha [1] | pest or weed control at 1200 g/ha (Scirpus juncoides [2]) | pest or weed control at 1200 g/ha (Monochoria vaginalis [3]) | inhibition at 1200 g/ha [4] | inhibition at 1200 g/ha (Monochoria vaginalis [5]) | inhibition at 1200 g/ha (Scirpus juncoides [6]) | inhibition at 1200 g/ha (Echinochloa crus-galli [7]) | inhibition at 75 g/ha [8] | inhibition at 75 g/ha (Monochoria vaginalis [9]) | inhibition at 75 g/ha (Scirpus juncoides [10]) | inhibition at 75 g/ha (Digitaria ciliaris) | inhibition at 75 g/ha (Echinochloa crus-galli [11])

CC(C)[C@]12C[C@@H](OCc3c(F)cccc3F)[C@](C)(C[C@@H]1Br)O2 [1-21, (1S,2R,4R,5S)-5-bromo-2-[(2,6-difluorophenyl)methoxy]-1-methyl-4-isopropyl-7-oxabicyclo[2.2.1]heptane]
≥ 80%: pest or weed control at 1200 g/ha [1] | pest or weed control at 1200 g/ha (Scirpus juncoides [2]) | pest or weed control at 1200 g/ha (Monochoria vaginalis [3]) | inhibition at 1200 g/ha [4] | inhibition at 1200 g/ha (Monochoria vaginalis [5]) | inhibition at 1200 g/ha (Scirpus juncoides [6]) | inhibition at 1200 g/ha (Echinochloa crus-galli [7]) | inhibition at 75 g/ha [8] | inhibition at 75 g/ha (Monochoria vaginalis [9]) | inhibition at 75 g/ha (Scirpus juncoides [10]) | inhibition at 75 g/ha (Digitaria ciliaris) | inhibition at 75 g/ha (Echinochloa crus-galli [11])

CC(C)[C@]12C[C@@H](OCc3ccccc3F)[C@](C)(C[C@@H]1I)O2 [1-753, (1S,2R,4R,SS)-2-[(2-fluorophenyl)methoxy]-5-iodo-1-methyl-4-isopropyl-7-oxabicyclo[2.2.1]heptane]
≥ 80%: weed inhibition rate [1] | weed inhibition rate (Scirpus juncoides [2]) | weed inhibition rate (Monochoria vaginalis [3]) | inhibition at 1200 g/ha [4] | inhibition at 1200 g/ha (Monochoria vaginalis [5]) | inhibition at 1200 g/ha (Scirpus juncoides [6]) | inhibition at 1200 g/ha (Echinochloa crus-galli [7]) | inhibition at 75 g/ha [8] | inhibition at 75 g/ha (Monochoria vaginalis [9]) | inhibition at 75 g/ha (Scirpus juncoides [10]) | inhibition at 75 g/ha (Echinochloa crus-galli [11])

CC(C)=CCO[C@@H]1C[C@]2(C(C)C)O[C@@]1(C)C[C@@H]2Br [1-672, (1S,2R,4R,5S)-5-bromo-1-methyl-2-(3-methylbut-2-enoxy)-4-isopropyl-7-oxabicyclo[2.2.1]heptane]
≥ 80%: pest or weed control at 1200 g/ha [1] | pest or weed control at 1200 g/ha (Monochoria vaginalis [3]) | inhibition at 1200 g/ha [4] | inhibition at 1200 g/ha (Monochoria vaginalis [5]) | inhibition at 1200 g/ha (Scirpus juncoides [6]) | inhibition at 1200 g/ha (Echinochloa crus-galli [7]) | inhibition at 75 g/ha [8] | inhibition at 75 g/ha (Monochoria vaginalis [9]) | inhibition at 75 g/ha (Scirpus juncoides [10]) | inhibition at 75 g/ha (Digitaria ciliaris) | inhibition at 75 g/ha (Echinochloa crus-galli [11])

Cc1ccccc1CO[C@@H]1C[C@@]2(C(C)C)C=C[C@]1(C)O2 [3-2, (1R,4S,5R)-4-methyl-5-[(2-methylphenyl)methoxy]-1-isopropyl-7-oxabicyclo[2.2.1]hept-2-ene]
≥ 80%: pest or weed control at 1200 g/ha [1] | pest or weed control at 1200 g/ha (Scirpus juncoides [2]) | pest or weed control at 1200 g/ha (Monochoria vaginalis [3]) | inhibition at 1200 g/ha [4] | inhibition at 1200 g/ha (Monochoria vaginalis [5]) | inhibition at 1200 g/ha (Scirpus juncoides [6]) | inhibition at 1200 g/ha (Echinochloa crus-galli [7]) | inhibition at 75 g/ha [8] | inhibition at 75 g/ha (Monochoria vaginalis [9]) | inhibition at 75 g/ha (Scirpus juncoides [10]) | inhibition at 75 g/ha (Echinochloa crus-galli [11])

CC(C)C1C[C@]2(C)O[C@@]1(C(C)C)C[C@H]2OCc1ccccc1F (stereo partly drawn) [1-133, (1S,2R,4R)-2-[(2-fluorobenzyl)oxy]-4,5-isopropyl-1-methyl-7-oxabicyclo[2.2.1]heptane]
≥ 80%: weed inhibition rate [1] | weed inhibition rate (Scirpus juncoides [2]) | weed inhibition rate (Monochoria vaginalis [3]) | inhibition at 1200 g/ha [4] | inhibition at 1200 g/ha (Monochoria vaginalis [5]) | inhibition at 1200 g/ha (Scirpus juncoides [6]) | inhibition at 1200 g/ha (Echinochloa crus-galli [7]) | inhibition at 75 g/ha [8] | inhibition at 75 g/ha (Monochoria vaginalis [9]) | inhibition at 75 g/ha (Scirpus juncoides [10]) | inhibition at 75 g/ha (Echinochloa crus-galli [11])

CC(C)[C@]12C[C@@H](OCc3ccsc3)[C@](C)(C[C@@H]1Br)O2 [1-722, (1S,2R,4R,5S)-5-bromo-1-methyl-4-isopropyl-2-(thiophen-3-ylmethoxy)-7-oxabicyclo[2.2.1]heptane]
≥ 80%: pest or weed control at 1200 g/ha [1] | pest or weed control at 1200 g/ha (Scirpus juncoides [2]) | pest or weed control at 1200 g/ha (Monochoria vaginalis [3]) | inhibition at 1200 g/ha [4] | inhibition at 1200 g/ha (Monochoria vaginalis [5]) | inhibition at 1200 g/ha (Scirpus juncoides [6]) | inhibition at 1200 g/ha (Echinochloa crus-galli [7]) | inhibition at 75 g/ha [8] | inhibition at 75 g/ha (Monochoria vaginalis [9]) | inhibition at 75 g/ha (Scirpus juncoides [10]) | inhibition at 75 g/ha (Echinochloa crus-galli [11])

CC(C)[C@]12C[C@@H](OCc3ccccc3F)[C@](C)(C[C@H]1C)O2 [1-94, (1S,2R,4R,5R)-2-[(2-fluorophenyl)methoxy]-1,5-dimethyl-4-isopropyl-7-oxabicyclo[2.2.1]heptane]
≥ 80%: pest or weed control at 1200 g/ha [1] | pest or weed control at 1200 g/ha (Scirpus juncoides [2]) | pest or weed control at 1200 g/ha (Monochoria vaginalis [3]) | inhibition at 1200 g/ha [4] | inhibition at 1200 g/ha (Monochoria vaginalis [5]) | inhibition at 1200 g/ha (Echinochloa crus-galli [7]) | inhibition at 75 g/ha [8] | inhibition at 75 g/ha (Monochoria vaginalis [9]) | inhibition at 75 g/ha (Scirpus juncoides [10]) | inhibition at 75 g/ha (Digitaria ciliaris) | inhibition at 75 g/ha (Echinochloa crus-galli [11])

Cc1cccc(C)c1CO[C@@H]1C[C@]2(C(C)C)O[C@@]1(C)CC2=O [2-5, (1R,4S,5R)-5-((2,6-dimethylbenzyl)oxy)-1-isopropyl-4-methyl-7-oxabicyclo[2.2.1]heptan-2-one]
≥ 80%: pest or weed control at 1200 g/ha [1] | pest or weed control at 1200 g/ha (Scirpus juncoides [2]) | pest or weed control at 1200 g/ha (Monochoria vaginalis [3]) | inhibition at 1200 g/ha [4] | inhibition at 1200 g/ha (Monochoria vaginalis [5]) | inhibition at 1200 g/ha (Echinochloa crus-galli [7]) | inhibition at 75 g/ha [8] | inhibition at 75 g/ha (Monochoria vaginalis [9]) | inhibition at 75 g/ha (Scirpus juncoides [10]) | inhibition at 75 g/ha (Digitaria ciliaris) | inhibition at 75 g/ha (Echinochloa crus-galli [11])

CC(C)[C@]12C[C@@H](OCc3cccs3)[C@](C)(C[C@@H]1Br)O2 [1-721, (1S,2R,4R,5S)-5-bromo-1-methyl-4-isopropyl-2-(thiophen-2-ylmethoxy)-7-oxabicyclo[2.2.1]heptane]
≥ 80%: pest or weed control at 1200 g/ha [1] | pest or weed control at 1200 g/ha (Scirpus juncoides [2]) | pest or weed control at 1200 g/ha (Monochoria vaginalis [3]) | inhibition at 1200 g/ha [4] | inhibition at 1200 g/ha (Monochoria vaginalis [5]) | inhibition at 1200 g/ha (Echinochloa crus-galli [7]) | inhibition at 75 g/ha [8] | inhibition at 75 g/ha (Monochoria vaginalis [9]) | inhibition at 75 g/ha (Scirpus juncoides [10]) | inhibition at 75 g/ha (Digitaria ciliaris) | inhibition at 75 g/ha (Echinochloa crus-galli [11])
